Test: Physicochemical parameters of Luc-mRNA-LNP (particle size, PDI, zeta potential, encapsulation efficiency)
Details: lipid formulation of Table 1
Procedure: The lipid compound of the present disclosure, neutral lipid (phospholipid), and PEG lipid were dissolved in an ethanol solution according to a specific molar ratio (detailed formulation shown in Table 1). The mRNA was dissolved in a citric acid buffer (pH 4.0) to a final concentration of 135 ng/µL. The LNP mixture and the mRNA dilution were mixed at a volume ratio of 1:3, and mRNA-LNP complexes were prepared using a microfluidic nano-preparation system with a flow rate ratio of 1:3 between the LNP mixture and the mRNA dilution, that is, the LNP volume:the mRNA volume was 1:3. After dilution with a 10× phosphate buffer solution (pH 7.4), ultrafiltration concentration was performed, followed by about 500-fold dilution with solution replacement. An experimental sample was obtained after sterile filtration. Samples were taken and analyzed for average particle size, PDI, and Zeta potential. Table 1: Three-component LNP lipid formulation based on cholesterol cationic lipid compound
Example 13: Preparation, Characterization, and In Vitro Cell Transfection Activity Evaluation of Luc-mRNA-LNP Using luciferase gene Luc-mRNA and referring to the preparation method provided in Example 12 and the lipid formulation provided in Table 1, Luc-mRNA-LNP was constructed, whose encapsulation efficiency, average particle size, PDI, and zeta potential data are shown in Table 2. […]

CCCCCCCCCCCOC(=O)CCCCCN(CCO)CCCCCCCC(=O)OC(CCCCCCCC)CCCCCCCC [SM-102]
Encapsulation efficiency (%): below 15%
